This is an account of results in US20040002425A1, “Triketone derivatives and herbicides” (Idemitsu Kosan Co., Ltd., priority 1998, published 2004).

Structures are written as SMILES.

In this data set the test system is Transplanted paddy rice plant. Nature of the data set: Biological Test 1 (treatment on the 3rd day after transplantation): chemical injury to paddy rice. It is filed as in vivo. More on the design: scale not given here. As to conditions: Treatment performed 3 days after transplantation. How it is done: (1) Preparation of Herbicide
Talc (57 parts by weight) and bentonite (40 parts by weight), both serving as carriers, and sodium alkylbenzenesulfate (3 parts by weight) serving as a surfactant were homogeneously ground and mixed to thereby obtain a carrier for water-dispersible powder.
Subsequently, to the water-dispersible powder (90 parts by weight), the triketone derivative (compound No. A-1) produced in Example I-1 (10 parts by weight) was added, and the resultant mixture was homogeneously ground and mixed to thereby obtain a herbicide.
(i) Biological Test 1 (Soaking in Water/Treatment on the 3rd Day After Transplantation)
A Wagner pot (1/2000 are) was filled with paddy soil, and seeds of barnyard grass were planted on the surface layer of the soil, and further, rice seedlings grown to the 2.5-leaf stage were transplanted.
Subsequently, water was poured in the pot to a height of 3 cm above the soil surface, and placed in a greenhouse where the temperature was maintained at 20-25° C., to thereby grow the plant under suitable conditions.
On the 3rd day after transplantation, the herbicide prepared in (1) above was applied to the plant in a predetermined amount. On the 30th day after treatment with the herbicide, weed-killing ratio, herbicidal effect, and extent of chemical injury to paddy rice were examined.
In Biological tests 1 and 2, herbicidal effect and extent of chemical injury were evaluated according to the below-described standards.
3) Chemical Injury to Paddy Rice
Chemical injury to paddy rice was evaluated according to the following criteria.

Turning to `O=C1CCCC(SCc2ccccc2)=C1C(=O)c1ccc2c(c1Cl)CCS2(=O)=O` [B-11], the “Chemical injury, Transplanted paddy rice plant” value (shortened to “Chemical injury”) by setting is: (dose 100 g/ha) 0; (dose 200 g/ha) 0.

Regarding `CON(C)C1=C(C(=O)c2ccc3c(c2Cl)CCS3(=O)=O)C(=O)CCC1` [B-12, 4-chloro-5-[3-(N-methoxymethyl)amino-1-oxocyclohexan-2-yl]carbonyl-2,3-dihydrobenzothiophene-1,1-dioxide], the “Chemical injury” value was determined as 0 (dose 100 g/ha) and 1 (dose 200 g/ha).

Take `CN(C)C1=C(C(=O)c2ccc3c(c2Cl)CCS3(=O)=O)C(=O)CCC1` [B-13]: the “Chemical injury” value turned out to be 0 (dose 100 g/ha) and 0 (dose 200 g/ha).

With `Cc1ccc(SC2=C(C(=O)c3ccc4c(c3Cl)CCS4(=O)=O)C(=O)CCC2)cc1` [B-14, 4-chloro-5-[3-(4-methylphenyl)thio-1-oxocyclohexan-2-yl]carbonyl-2,3-dihydrobenzothiophene-1,1-dioxide], the “Chemical injury” value was determined as 0 (dose 100 g/ha) and 0 (dose 200 g/ha).

As to `Cc1cccc(SC2=C(C(=O)c3ccc4c(c3Cl)CCS4(=O)=O)C(=O)CCC2)c1` [B-15, 4-chloro-5-[3-(3-methylphenyl)thio-1-oxocyclohexan-2-yl]carbonyl-2,3-dihydrobenzothiophene-1,1-dioxide], the “Chemical injury” value (dose 100 g/ha) is listed as 0 and the “Chemical injury” value (dose 200 g/ha) was 0.

For `Cc1ccccc1SC1=C(C(=O)c2ccc3c(c2Cl)CCS3(=O)=O)C(=O)CCC1` [B-16], the “Chemical injury” value by setting is: (dose 100 g/ha) 0; (dose 200 g/ha) 0.

For `O=C1CCCC(Sc2ccccc2Cl)=C1C(=O)c1ccc2c(c1Cl)CCS2(=O)=O` [B-17], the “Chemical injury” value was 0 (dose 100 g/ha) and 0 (dose 200 g/ha).

Turning to `CC(C)c1ccccc1SC1=C(C(=O)c2ccc3c(c2Cl)CCS3(=O)=O)C(=O)CCC1` [B-18], the “Chemical injury” value runs as follows: (dose 100 g/ha) 0; (dose 200 g/ha) 0.

`COC(=O)c1ccccc1SC1=C(C(=O)c2ccc3c(c2Cl)CCS3(=O)=O)C(=O)CCC1` [B-19]: the “Chemical injury” value is listed as 0 (dose 100 g/ha) and 0 (dose 200 g/ha).

For `COc1ccc(SC2=C(C(=O)c3ccc4c(c3Cl)CCS4(=O)=O)C(=O)CCC2)cc1` [B-20], the “Chemical injury” value is reported as 0 (dose 100 g/ha) and 0 (dose 200 g/ha).

With `O=C1CCCC(Sc2ccc(Br)cc2)=C1C(=O)c1ccc2c(c1Cl)CCS2(=O)=O` [B-21], the “Chemical injury” value is 0 (dose 100 g/ha) and 0 (dose 200 g/ha).

Turning to `C=CCSC1=C(C(=O)c2ccc3c(c2Cl)CCS3(=O)=O)C(=O)CCC1` [B-22, 4-chloro-5-[3-(3-propenyl)thio-1-oxocyclohexan-2-yl]carbonyl-2,3-dihydrobenzothiophene-1,1-dioxide], the “Chemical injury” value (dose 100 g/ha) was 0 and the “Chemical injury” value (dose 200 g/ha) is on record as 0.

As for `CC(C)(C)SC1=C(C(=O)c2ccc3c(c2Cl)CCS3(=O)=O)C(=O)CCC1` [B-23], the “Chemical injury” value (dose 100 g/ha) stood at 0 and the “Chemical injury” value (dose 200 g/ha) was 0.

For `CS(=O)(=O)C1=C(C(=O)c2ccc3c(c2Cl)CCS3(=O)=O)C(=O)CCC1` [B-24], the “Chemical injury” value reads like this: (dose 100 g/ha) 0; (dose 200 g/ha) 0.

On to `CC1CC(=O)C(C(=O)c2ccc3c(c2Cl)CCS3(=O)=O)=C(Cl)C1` (centres unmarked) [B-25], for which the “Chemical injury” value is, setting by setting: (dose 100 g/ha) 0; (dose 200 g/ha) 1.

`CC1CC(=O)C(C(=O)c2ccc3c(c2Cl)CCS3(=O)=O)=C(Sc2ccccc2)C1` (centres unmarked) [B-26]: the “Chemical injury” value (dose 100 g/ha) was 0 and the “Chemical injury” value (dose 200 g/ha) is 0.

As for `CCS(=O)(=O)C1=C(C(=O)c2ccc3c(c2Cl)CCS3(=O)=O)C(=O)CCC1` [B-27], the “Chemical injury” value reads like this: (dose 100 g/ha) 0; (dose 200 g/ha) 0.

On to `CCCS(=O)(=O)C1=C(C(=O)c2ccc3c(c2Cl)CCS3(=O)=O)C(=O)CCC1` [B-28], for which the “Chemical injury” value (dose 100 g/ha) was 0 and the “Chemical injury” value (dose 200 g/ha) amounted to 0.

Consider `CC(C)S(=O)(=O)C1=C(C(=O)c2ccc3c(c2Cl)CCS3(=O)=O)C(=O)CCC1` [B-29], for which the “Chemical injury” value runs as follows: (dose 100 g/ha) 0; (dose 200 g/ha) 0.

Regarding `CCCCS(=O)(=O)C1=C(C(=O)c2ccc3c(c2Cl)CCS3(=O)=O)C(=O)CCC1` [B-30], the “Chemical injury” value came to 0 (dose 100 g/ha) and 0 (dose 200 g/ha).

Turning to `O=C1CCCC(S(=O)(=O)c2ccccc2)=C1C(=O)c1ccc2c(c1Cl)CCS2(=O)=O` [B-31], the “Chemical injury” value is, setting by setting: (dose 100 g/ha) 0; (dose 200 g/ha) 0.

On to `Cc1ccccc1S(=O)(=O)C1=C(C(=O)c2ccc3c(c2Cl)CCS3(=O)=O)C(=O)CCC1` [B-32], for which the “Chemical injury” value was found to be 0 (dose 100 g/ha) and 0 (dose 200 g/ha).

As to `Cc1cccc(S(=O)(=O)C2=C(C(=O)c3ccc4c(c3Cl)CCS4(=O)=O)C(=O)CCC2)c1` [B-33], the “Chemical injury” value is given as 0 (dose 100 g/ha) and 0 (dose 200 g/ha).

In the case of `Cc1ccc(S(=O)(=O)C2=C(C(=O)c3ccc4c(c3Cl)CCS4(=O)=O)C(=O)CCC2)cc1` [B-34], the “Chemical injury” value is recorded as 0 (dose 100 g/ha) and 0 (dose 200 g/ha).

Regarding `O=C1CCCC(S(=O)(=O)c2ccccc2Cl)=C1C(=O)c1ccc2c(c1Cl)CCS2(=O)=O` [B-35], the “Chemical injury” value (dose 100 g/ha) came out at 0 and the “Chemical injury” value (dose 200 g/ha) is 0.

As for `CC(C)c1ccccc1S(=O)(=O)C1=C(C(=O)c2ccc3c(c2Cl)CCS3(=O)=O)C(=O)CCC1` [B-36], the “Chemical injury” value reads like this: (dose 100 g/ha) 0; (dose 200 g/ha) 0.

As for `COc1ccc(S(=O)(=O)C2=C(C(=O)c3ccc4c(c3Cl)CCS4(=O)=O)C(=O)CCC2)cc1` [B-37], the “Chemical injury” value runs as follows: (dose 100 g/ha) 0; (dose 200 g/ha) 0.

On to `C=CCS(=O)(=O)C1=C(C(=O)c2ccc3c(c2Cl)CCS3(=O)=O)C(=O)CCC1` [B-38, 4-chloro-5-[3-(3-propenyl)sulfonyl-1-oxocyclohexan-2-yl]carbonyl-2,3-dihydrobenzothiophene-1,1-dioxide], for which the “Chemical injury” value worked out at 0 (dose 100 g/ha) and 0 (dose 200 g/ha).

On to `CC(C)(C)S(=O)(=O)C1=C(C(=O)c2ccc3c(c2Cl)CCS3(=O)=O)C(=O)CCC1` [B-39], for which the “Chemical injury” value (dose 100 g/ha) was determined as 0 and the “Chemical injury” value (dose 200 g/ha) is listed as 0.

Take `O=C1CCCC(S(=O)(=O)Cc2ccccc2)=C1C(=O)c1ccc2c(c1Cl)CCS2(=O)=O` [B-40]: the “Chemical injury” value runs as follows: (dose 100 g/ha) 0; (dose 200 g/ha) 0.

As to `O=C1CCCC(S(=O)(=O)c2ccc(Br)cc2)=C1C(=O)c1ccc2c(c1Cl)CCS2(=O)=O` [B-42], the “Chemical injury” value (dose 100 g/ha) is 0 and the “Chemical injury” value (dose 200 g/ha) is reported as 0.

Consider `O=C1CCCC(S(=O)(=O)c2ccc(O)cc2)=C1C(=O)c1ccc2c(c1Cl)CCS2(=O)=O` [B-43], for which the “Chemical injury” value runs as follows: (dose 100 g/ha) 0; (dose 200 g/ha) 0.

With `COC(=O)c1ccccc1S(=O)(=O)C1=C(C(=O)c2ccc3c(c2Cl)CCS3(=O)=O)C(=O)CCC1` [B-44], the “Chemical injury” value amounted to 0 (dose 100 g/ha) and 0 (dose 200 g/ha).

For `CC(=O)c1ccc(SC2=C(C(=O)c3ccc4c(c3Cl)CCS4(=O)=O)C(=O)CCC2)cc1` [B-45, 4-chloro-5-[3-(4-acetylphenyl)thio-1-oxocyclohexan-2-yl]carbonyl-2,3-dihydrobenzothiophene-1,1-dioxide], the “Chemical injury” value is, setting by setting: (dose 100 g/ha) 0; (dose 200 g/ha) 0.

Consider `CC(=O)c1ccc(S(=O)(=O)C2=C(C(=O)c3ccc4c(c3Cl)CCS4(=O)=O)C(=O)CCC2)cc1` [B-46], for which the “Chemical injury” value is, setting by setting: (dose 100 g/ha) 0; (dose 200 g/ha) 0.

With `Cc1c(C(=O)C2=C(Cl)CCCC2=O)ccc2c1CCS2(=O)=O` [B-47], the “Chemical injury” value is 0 (dose 100 g/ha) and 0 (dose 200 g/ha).

As for `O=C1CCCC(Sc2ccccc2O)=C1C(=O)c1ccc2c(c1Cl)CCS2(=O)=O` [B-48], the “Chemical injury” value (dose 100 g/ha) was determined as 0 and the “Chemical injury” value (dose 200 g/ha) is reported as 0.

Consider `O=C1CCCC(S(=O)(=O)c2ccccc2O)=C1C(=O)c1ccc2c(c1Cl)CCS2(=O)=O` [B-49], for which the “Chemical injury” value (dose 100 g/ha) came out at 0 and the “Chemical injury” value (dose 200 g/ha) is 0.

Take `COCCOC1=C(C(=O)c2ccc3c(c2Cl)CCS3(=O)=O)C(=O)CCC1` [B-53]: the “Chemical injury” value (dose 100 g/ha) is 0 and the “Chemical injury” value (dose 200 g/ha) was 0.

Consider `CO/N=C1\CCS(=O)(=O)c2c(C)cc(C(=O)C3=C(Cl)CCCC3=O)c(C)c21` [B-54], for which the “Chemical injury” value (dose 100 g/ha) was found to be 1 and the “Chemical injury” value (dose 200 g/ha) was determined as 4.
